Data reported in paper PMC10935252, “Synthesis and Biological Evaluation of New Dihydrofuro[3,2-b]piperidine Derivatives as Potent α-Glucosidase Inhibitors” (Molecules, 2024).

The molecules below were run on α-glucosidase from yeast (assay: α-Glucosidase inhibition assay). Details: ratio of IC50 values against α-glucosidase from yeast.
Format: biochemical, Baker’s yeast
Description: α-Glucosidase activity was assayed by the method reported, with minor modifications. […] The reaction mixture contained 150 μL of enzyme solution, 150 μL of inhibitor, and 150 μL of substrate (maltose). The substrate and α-glucosidase (Baker’s yeast) were purchased from Sigma-Aldrich Chemical (St. Louis, MO, USA). Both the inhibitor and the substrate were first dissolved in dimethylsulfoxide (DMSO) and then diluted with Na2HPO4/NaH2PO4 buffer for a final concentration of DMSO of 5%. The enzymatic reaction was started after incubation of the enzyme (0.04 U/mL) for 10 min in the presence of the inhibitor (five different concentrations) by the addition of the substrate (0.5 mM). The mixture was incubated at 37 °C for 60 min, and the reaction was quenched in boiling water for 10 min. The supernatant was taken to determine the content of glucose by means of the glucose oxidase method using a commercial glucose kit (Sichuan Mike Biotechnology Co., Ltd., Chengdu, China). The absorption at 505 nm was measured immediately and taken as the relative rate for the hydrolysis of the substrate. The blank control (the distilled water instead of sample and enzyme solution in the process) and the negative control (distilled water instead of sample solution in the process) were also prepared. Acarbose was used as the positive control. To calculate the inhibition rate (%), the following formula was used: (controlnegative − sample)/(controlnegative − controlblank) × 100%. The entire experiment was carried out in triplicate.

Row | times stronger activity than the positive control acarbose [times] | SMILES
1 | 30 | C[C@]1(O)C[C@@H]2[C@H](O1)[C@@H](O)[C@@H](O)CN2Cc1c(Cl)cc(O)cc1Cl [Compound 32, (2R, 3aR, 6S, 7S, 7aS)-2,6,7-trihydroxy-2-methyl-4-(2,6-dichloro-4-hydroxylbenzyl)-3a,7a-Dihydrofuro[3,2-b]piperidine]

Same assay, conditions: substrate maltose 0.5 mM, pH 6.8, 37 °C; mean ± SD of three independent experiments; read-out: IC50 against α-glucosidase from yeast

Row | IC50 [µM] | SMILES
2 | > 20 | C[C@]1(O)C[C@@H]2[C@@H](O1)[C@H](O)[C@H](O)CN2Cc1cccc(O)c1 [Compound 16, (2R, 3aR, 6R, 7R, 7aR)-2,6,7-trihydroxy-2-methyl-4-(3-hydroxylbenzyl)-3a,7a-Dihydrofuro[3,2-b]piperidine]
3 | 3.7 ± 0.1 | C[C@]1(O)C[C@@H]2[C@H](O1)[C@@H](O)[C@@H](O)CN2Cc1cccc(O)c1 [Compound 27, (2R, 3aR, 6S, 7S, 7aS)-2,6,7-trihydroxy-2-methyl-4-(3-hydroxylbenzyl)-3a,7a-di-hydrofuro[3,2-b]piperidine]
4 | 1.2 ± 0.1 | C[C@]1(O)C[C@@H]2[C@H](O1)[C@@H](O)[C@@H](O)CN2Cc1ccc(O)c(Br)c1 [Compound 29, (2R, 3aR, 6S, 7S, 7aS)-2,6,7-trihydroxy-2-methyl-4-(3-bromo-4-hydroxylbenzyl)-3a,7a-Dihydrofuro[3,2-b]piperidine]
5 | 2.6 ± 0.3 | C[C@]1(O)C[C@@H]2[C@H](O1)[C@@H](O)[C@@H](O)CN2Cc1ccc(O)c(F)c1 [Compound 30, (2R, 3aR, 6S, 7S, 7aS)-2,6,7-trihydroxy-2-methyl-4-(3-fluoro-4-hydroxylbenzyl)-3a,7a-Dihydrofuro[3,2-b]piperidine]
6 | 10 ± 0.7 | C[C@]1(O)C[C@@H]2[C@@H](O1)[C@H](O)[C@H](O)CN2Cc1ccc(O)cc1 [Compound 14, (2R, 3aR, 6R, 7R, 7aR)-2,6,7-trihydroxy-2-methyl-4-(4-hydroxylbenzyl)-3a,7a-Dihydrofuro[3,2-b]piperidine]
7 | 5.5 ± 0.4 | C[C@]1(O)C[C@@H]2[C@@H](O1)[C@H](O)[C@H](O)CN2Cc1ccc(O)c(Br)c1 [Compound 18, (2R, 3aR, 6R, 7R, 7aR)-2,6,7-trihydroxy-2-methyl-4-(3-bromo-4-hydroxylbenzyl)-3a,7a-Dihydrofuro[3,2-b]piperidine]
8 | 0.07 ± 0.01 | C[C@]1(O)C[C@@H]2[C@H](O1)[C@@H](O)[C@@H](O)CN2Cc1c(Cl)cc(O)cc1Cl [Compound 32, (2R, 3aR, 6S, 7S, 7aS)-2,6,7-trihydroxy-2-methyl-4-(2,6-dichloro-4-hydroxylbenzyl)-3a,7a-Dihydrofuro[3,2-b]piperidine]
9 | 4.9 ± 0.2 | C[C@]1(O)C[C@@H]2[C@@H](O1)[C@H](O)[C@H](O)CN2Cc1ccc(O)c(Cl)c1 [Compound 17, (2R, 3aR, 6R, 7R, 7aR)-2,6,7-trihydroxy-2-methyl-4-(3-chloro-4-hydroxylbenzyl)-3a,7a-Dihydrofuro[3,2-b]piperidine]
10 | 13 ± 0.5 | C[C@]1(O)C[C@@H]2[C@@H](O1)[C@H](O)[C@H](O)CN2Cc1ccccc1Cl [Compound 13, (2R, 3aR, 6R, 7R, 7aR)-2,6,7-trihydroxy-2-methyl-4-(2-chlorobenzyl)-3a,7a-Dihydrofuro[3,2-b]piperidine]
11 | 1.8 ± 0.2 | C[C@]1(O)C[C@@H]2[C@H](O1)[C@@H](O)[C@@H](O)CN2Cc1ccc(O)cc1Cl [Compound 31, (2R, 3aR, 6S, 7S, 7aS)-2,6,7-trihydroxy-2-methyl-4-(2-chloro-4-hydroxylbenzyl)-3a,7a-Dihydrofuro[3,2-b]piperidine]
12 | 8.3 ± 0.4 | C[C@]1(O)C[C@@H]2[C@H](O1)[C@@H](O)[C@@H](O)CN2Cc1ccc(O)cc1 [Compound 25, (2R, 3aR, 6S, 7S, 7aS)-2,6,7-trihydroxy-2-methyl-4-(4-hydroxylbenzyl)-3a,7a-di-hydrofuro[3,2-b]piperidine]
13 | > 20 | CC(=O)C[C@H]1NC[C@@H](O)[C@@H](O)[C@@H]1O [Compound 6]
14 | 0.91 ± 0.1 | C[C@]1(O)C[C@@H]2[C@@H](O1)[C@H](O)[C@H](O)CN2Cc1c(Cl)cc(O)cc1Cl [Compound 21, (2R, 3aR, 6R, 7R, 7aR)-2,6,7-trihydroxy-2-methyl-4-(2,6-dichloro-4-hydroxylbenzyl)-3a,7a-Dihydrofuro[3,2-b]piperidine]
15 | > 20 | CCOc1cc(CN2C[C@H](O)[C@H](O)[C@H]3O[C@@](C)(O)C[C@H]32)ccc1O [Compound 34, (2R, 3aR, 6S, 7S, 7aS)-2,6,7-trihydroxy-2-methyl-4-(4-hydroxyl-3-ethyoxylbenzyl)-3a,7a-Dihydrofuro[3,2-b]piperidine]
16 | > 20 | C[C@]1(O)C[C@@H]2[C@H](O1)[C@@H](O)[C@@H](O)CN2Cc1ccccc1O [Compound 26, (2R, 3aR, 6S, 7S, 7aS)-2,6,7-trihydroxy-2-methyl-4-(2-hydroxylbenzyl)-3a,7a-di-hydrofuro[3,2-b]piperidine]
17 | > 20 | CC(=O)C[C@H]1NC[C@H](O)[C@H](O)[C@H]1O [Compound 12]
18 | 1.9 ± 0.2 | C[C@]1(O)C[C@@H]2[C@@H](O1)[C@H](O)[C@H](O)CN2Cc1cc(Br)c(O)c(Br)c1 [Compound 24, (2R, 3aR, 6R, 7R, 7aR)-2,6,7-trihydroxy-2-methyl-4-(3,5-dibromo-4-hydroxyl-benzyl)-3a,7a-Dihydrofuro[3,2-b]piperidine]
19 | > 20 | COc1cc(CN2C[C@H](O)[C@H](O)[C@H]3O[C@@](C)(O)C[C@H]32)ccc1O [Compound 33, (2R, 3aR, 6S, 7S, 7aS)-2,6,7-trihydroxy-2-methyl-4-(4-hydroxyl-methoxylbenzyl)-3a,7a-Dihydrofuro[3,2-b]piperidine]
20 | 9 ± 0.6 | CCOc1cc(CN2C[C@@H](O)[C@@H](O)[C@@H]3O[C@@](C)(O)C[C@H]32)ccc1O [Compound 23, (2R, 3aR, 6R, 7R, 7aR)-2,6,7-trihydroxy-2-methyl-4-(4-hydroxyl-3-ethyoxylbenzyl)-3a,7a-Dihydrofuro[3,2-b]piperidine]
21 | 0.5 ± 0.1 | C[C@]1(O)C[C@@H]2[C@H](O1)[C@@H](O)[C@@H](O)CN2Cc1ccc(O)c(Cl)c1 [Compound 28, (2R, 3aR, 6S, 7S, 7aS)-2,6,7-trihydroxy-2-methyl-4-(3-chloro-4-hydroxylbenzyl)-3a,7a-Dihydrofuro[3,2-b]piperidine]
22 | 5.4 ± 0.3 | C[C@]1(O)C[C@@H]2[C@@H](O1)[C@H](O)[C@H](O)CN2Cc1ccc(O)c(F)c1 [Compound 19, (2R, 3aR, 6R, 7R, 7aR)-2,6,7-trihydroxy-2-methyl-4-(3-fluoro-4-hydroxylbenzyl)-3a,7a-Dihydrofuro[3,2-b]piperidine]
23 | 4.4 ± 0.3 | C[C@]1(O)C[C@@H]2[C@@H](O1)[C@H](O)[C@H](O)CN2Cc1ccc(O)cc1Cl [Compound 20, (2R, 3aR, 6R, 7R, 7aR)-2,6,7-trihydroxy-2-methyl-4-(2-chloro-4-hydroxylbenzyl)-3a,7a-Dihydrofuro[3,2-b]piperidine]
24 | 10.5 ± 0.8 | COc1cc(CN2C[C@@H](O)[C@@H](O)[C@@H]3O[C@@](C)(O)C[C@H]32)ccc1O [Compound 22, (2R, 3aR, 6R, 7R, 7aR)-2,6,7-trihydroxy-2-methyl-4-(4-hydroxyl-methoxylbenzyl)-3a,7a-Dihydrofuro[3,2-b]piperidine]
25 | > 20 | C[C@]1(O)C[C@@H]2[C@@H](O1)[C@H](O)[C@H](O)CN2Cc1ccccc1O [Compound 15, (2R, 3aR, 6R, 7R, 7aR)-2,6,7-trihydroxy-2-methyl-4-(2-hydroxylbenzyl)-3a,7a-Dihydrofuro[3,2-b]piperidine]

Row | SMILES | IC50 [µM]
26 | C[C@H]1O[C@H](O[C@H]2[C@H](O)[C@@H](O)[C@@H](O[C@H]3[C@H](O)[C@@H](O)C(O)O[C@@H]3CO)O[C@@H]2CO)[C@H](O)[C@@H](O)[C@@H]1N[C@H]1C=C(CO)[C@@H](O)[C@H](O)[C@H]1O (some centres unmarked) [Acarbose, reference compound] | 2 ± 0.2
